Measurements reported in PMC10574761, “Novel 1,2,3-Triazole-Containing Quinoline–Benzimidazole Hybrids: Synthesis, Antiproliferative Activity, In Silico ADME Predictions, and Docking” (Molecules, 2023).

How the values were obtained:
[1] = tested on: MRC-5 (human fetal lung fibroblasts, non-tumor); experiment: MTT proliferation assay, MRC-5; type: cell-based; settings: MRC5, 72 h treatment
Protocol: (§1) The effect of the new synthesized compounds was tested on five human tumor cell lines, HeLa (human cervical adenocarcinoma; from ATCC), CaCo-2 (human colorectal adenocarcinoma), HL-60 (acute promyelocytic leukemia), HuT78 (T-cell lymphoma) and THP-1 (acute monocytic leukemia), and on one non-tumor cell line, MRC-5 (human fetal lung fibroblasts). The MRC-5 cells were used between 24 and 26 passages. The cells were cultured in two different types of media: DMEM (Gibco, EU) and RPMI 1640 (Gibco, EU). Both media were supplemented with 2 mM glutamine, fetal bovine serum (10%; heat inactivated) and antibiotics (100 U penicillin and 0.1 mg streptomycin). RPMI 1640 was additionally supplemented with 10 mM HEPES and 1 mM sodium pyruvate. The cells growing in a monolayer were cultured in DMEM, while the cells growing in suspension were cultured in RPMI 1640. The cells were grown in humidified atmosphere under the conditions of 37 °C/5% CO2 gas in the CO2 incubator (IGO 150 CELLlife^TM, JOUAN, Thermo Fisher Scientific, Waltham, MA, USA).
(§2) Growth-inhibitory activity was assessed using a slightly modified procedure based on the National Cancer Institute’s protocol. Briefly, the cells were seeded in 96-well microtiter plates and incubated for 24 h. They were then treated with 10^−7 to 10^−4 M concentrations of the tested compounds for an additional 72 h. After the treatment period, the effects of the tested compounds on the growth rate of the cells were examined using the MTT assay. Absorbance was measured at 595 nm using a microplate reader. […] The selectivity index was calculated according to the following formula: SI=IC50 value of normal cell line/IC50 value of cancer cell line
(§3) The effect of each concentration was analyzed by plotting the logarithm of the concentration of the evaluated compound against the corresponding percentage inhibition value using least squares.

[2] = tested on: THP-1 (acute monocytic leukemia); experiment: MTT proliferation assay, THP-1; type: cell-based, human; settings: Homo sapiens, THP-1; 72 h treatment, MTT
Protocol: as §1, §2, §3

Hut78 (T-cell lymphoma) = experiment: MTT proliferation assay, HuT78; type: cell-based, human; settings: Homo sapiens, HuT78; 72 h treatment, MTT
Protocol: as §1, §2, §3

[3] = tested on: HL-60 (acute promyelocytic leukemia); experiment: MTT proliferation assay, HL-60; type: cell-based; settings: Homo sapiens, 72 h treatment
Protocol: as §1, §2, §3

[4] = tested on: HeLa (human cervical adenocarcinoma); experiment: MTT proliferation assay, HeLa; type: cell-based; settings: 72 h treatment
Protocol: as §1, §2, §3

[5] = tested on: CaCo-2 (human colorectal adenocarcinoma); experiment: MTT proliferation assay, CaCo-2; type: cell-based; settings: 72 h treatment
Protocol: as §1, §2, §3

IC50 [2] [µM] | IC50 (Hut78 (T-cell lymphoma)) [µM] | IC50 [3] [µM] | IC50 [4] [µM] | IC50 [5] [µM] | melting point [°C] | SMILES | IC50 [1] [µM]
76.4 | > 100 | > 100 | – | – | – | O=c1[nH]cc(F)c(=O)[nH]1 [Compound 5-FU, 5-fluorouracil, reference compound] | 54.1
> 100 | 100 | > 100 | > 100 | > 100 | 143 to 145 | Clc1ccc2c(-n3cc(COc4ccc(-c5nc6ccccc6[nH]5)cc4)nn3)ccnc2c1 [Compound 9a, 4-(4-{[4-(1H-benzo[d]imidazol-2-yl)phenoxy]methyl}-1H-1,2,3-triazol-1-yl)-7-chloroquinoline] | > 100
> 100 | 92.9 ± 4.3 | > 100 | 94.1 | > 100 | 168 to 170 | Clc1ccc2[nH]c(-c3ccc(OCc4cn(-c5ccnc6cc(Cl)ccc56)nn4)cc3)nc2c1 [Compound 9b, 7-chloro-4-(4-{[4-(5-chloro-1H-benzo[d]imidazol-2-yl)phenoxy]methyl}-1H-1,2,3-triazol-1-yl)quinoline] | 100
> 100 | 2.52 | > 100 | > 100 | > 100 | 240 to 242 | Cl.Cl.Cl.N=C(N)c1ccc2[nH]c(-c3ccc(OCc4cn(-c5ccnc6cc(Cl)ccc56)nn4)cc3)nc2c1 [Compound 9d, 2-(4-{[1-(7-chloroquinolin-4-yl)-1H-1,2,3-triazol-4-yl]methoxy}phenyl)-1H-benzo[d]imidazol-5-carboximidamide trihydrochloride] | > 100
> 100 | 10.2 | 98.3 | > 100 | > 100 | 228 to 230 | CCCNC(=N)c1ccc2[nH]c(-c3ccc(OCc4cn(-c5ccnc6cc(Cl)ccc56)nn4)cc3)nc2c1.Cl.Cl.Cl [Compound 9e, 2-(4-{[1-(7-chloroquinolin-4-yl)-1H-1,2,3-triazol-4-yl]methoxy}phenyl)-N-propyl-1H-benzo[d]imidazol-5-carboximidamide trihydrochloride] | > 100
9.6 | 5.88 | 76.1 | 10 | 63.8 | 252 to 254 | Clc1ccc2c(-n3cc(COc4ccc(-c5nc6ccccc6[nH]5)cc4Br)nn3)ccnc2c1 [Compound 10a, 4-(4-{[4-(1H-benzo[d]imidazol-2-yl)-2-bromophenoxy]methyl}-1H-1,2,3-triazol-1-yl)-7-chloroquinoline] | 52.1
10.6 | 6.43 | 55.2 | 8.11 | 10.9 | – | Clc1ccc2[nH]c(-c3ccc(OCc4cn(-c5ccnc6cc(Cl)ccc56)nn4)c(Br)c3)nc2c1 [Compound 10b, 4-(4-{[2-bromo-4-(5-chloro-1H-benzo[d]imidazol-2-yl)phenoxy]methyl}-1H-1,2,3-triazol-1-yl)-7-chloroquinoline] | > 100
6.23 | 3.89 | 18.2 | 9.86 | 9.92 | 170 to 172 | COc1ccc2[nH]c(-c3ccc(OCc4cn(-c5ccnc6cc(Cl)ccc56)nn4)c(Br)c3)nc2c1 [Compound 10c, 4-(4-{[2-bromo-4-(5-methoxy-1H-benzo[d]imidazol-2-yl)phenoxy]methyl}-1H-1,2,3-triazol-1-yl)-7-chloroquinoline] | 8.54
> 100 | > 100 | > 100 | > 100 | > 100 | 200 to 202 | Cl.Cl.Cl.N=C(N)c1ccc2[nH]c(-c3ccc(OCc4cn(-c5ccnc6cc(Cl)ccc56)nn4)c(Br)c3)nc2c1 [Compound 10d, 2-(3-bromo-4-{[1-(7-chloroquinolin-4-yl)-1H-1,2,3-triazol-4-yl]methoxy}phenyl)-1H-benzo[d]imidazol-5-carboximidamide trihydrochloride] | > 100
> 100 | > 100 | > 100 | > 100 | > 100 | 221 to 223 | Clc1ccc2c(NCCn3cc(COc4ccc(-c5nc6ccccc6[nH]5)cc4)nn3)ccnc2c1 [Compound 14a, N-[2-(4-{[4-(1H-benzo[d]midazole-2-yl)phenoxy]methyl}-1H-1,2,3-triazol-1-yl)ethyl]-7-chloroquinolin-4-amine] | > 100
> 100 | > 100 | > 100 | > 100 | > 100 | 213 to 215 | Clc1ccc2[nH]c(-c3ccc(OCc4cn(CCNc5ccnc6cc(Cl)ccc56)nn4)cc3)nc2c1 [Compound 14b, 7-chloro-N-[2-(4-{[4-(5-chloro-1H-benzo[d]imidazol-2-yl)phenoxy]methyl}-1H-1,2,3-triazol-1-yl)ethyl]quinolin-4-amine] | > 100
7.31 | > 100 | > 100 | > 100 | > 100 | 150 to 152 | COc1ccc2[nH]c(-c3ccc(OCc4cn(CCNc5ccnc6cc(Cl)ccc56)nn4)cc3)nc2c1 [Compound 14c, 7-chloro-N-[2-(4-{[4-(5-methoxy-1H-benzo[d]imidazol-2-yl)phenoxy]methyl}-1H-1,2,3-triazol-1-yl)ethyl]quinolin-4-amine] | > 100
> 100 | 10.5 | > 100 | > 100 | > 100 | 227 to 229 | Cl.Cl.Cl.N=C(N)c1ccc2[nH]c(-c3ccc(OCc4cn(CCNc5ccnc6cc(Cl)ccc56)nn4)cc3)nc2c1 [Compound 14d, 2-{4-[(1-{2-[(7-chloroquinolin-4-yl)amino]ethyl}-1H-1,2,3-triazol-4-yl)methoxy]phenyl}-1H-benzo[d]imidazol-5-carboximidamide trihydrochloride] | > 100
4.66 | 7.88 | 11.6 | > 100 | > 100 | 155 to 157 | Clc1ccc2c(NCCn3cc(COc4ccc(-c5nc6ccccc6[nH]5)cc4Br)nn3)ccnc2c1 [Compound 15a, N-[2-(4-{[4-(1H-benzo[d]imidazol-2-yl)-2-bromophenoxy]methyl}-1H-1,2,3-triazol-1-yl)ethyl]-7-chloroquinolin-4-amine] | > 100
2.06 | 4.91 | 1.24 | > 100 | > 100 | 100 to 102 | Clc1ccc2[nH]c(-c3ccc(OCc4cn(CCNc5ccnc6cc(Cl)ccc56)nn4)c(Br)c3)nc2c1 [Compound 15b, N-[2-(4-{[2-bromo-4-(5-chloro-1H-benzo[d]imidazol-2-yl)phenoxy]methyl}-1H-1,2,3-triazol-1-yl)ethyl]-7-chloroquinolin-4-amine] | > 100
